This note sets out measurements from patent publication US8481525B2, “Kinase inhibitors and method of treating cancer with same” (University of Health Network, priority 2009, dated 2013).

The term inhibition denotes the change of the read-out against control, counted positive when it falls. As usually defined, the GI50 is the concentration that inhibits growth by half.

Where two headings read alike, the source gives them in different places.

The target of one experiment is FLT-3 (Homo sapiens, UniProt P36888). As to the kind of experiment: CEREP HTRF kinase selectivity assay. The class given is biochemical. As to conditions: FLT-3, 10 uM.
Chain of FLT-3 (P36888 27-993): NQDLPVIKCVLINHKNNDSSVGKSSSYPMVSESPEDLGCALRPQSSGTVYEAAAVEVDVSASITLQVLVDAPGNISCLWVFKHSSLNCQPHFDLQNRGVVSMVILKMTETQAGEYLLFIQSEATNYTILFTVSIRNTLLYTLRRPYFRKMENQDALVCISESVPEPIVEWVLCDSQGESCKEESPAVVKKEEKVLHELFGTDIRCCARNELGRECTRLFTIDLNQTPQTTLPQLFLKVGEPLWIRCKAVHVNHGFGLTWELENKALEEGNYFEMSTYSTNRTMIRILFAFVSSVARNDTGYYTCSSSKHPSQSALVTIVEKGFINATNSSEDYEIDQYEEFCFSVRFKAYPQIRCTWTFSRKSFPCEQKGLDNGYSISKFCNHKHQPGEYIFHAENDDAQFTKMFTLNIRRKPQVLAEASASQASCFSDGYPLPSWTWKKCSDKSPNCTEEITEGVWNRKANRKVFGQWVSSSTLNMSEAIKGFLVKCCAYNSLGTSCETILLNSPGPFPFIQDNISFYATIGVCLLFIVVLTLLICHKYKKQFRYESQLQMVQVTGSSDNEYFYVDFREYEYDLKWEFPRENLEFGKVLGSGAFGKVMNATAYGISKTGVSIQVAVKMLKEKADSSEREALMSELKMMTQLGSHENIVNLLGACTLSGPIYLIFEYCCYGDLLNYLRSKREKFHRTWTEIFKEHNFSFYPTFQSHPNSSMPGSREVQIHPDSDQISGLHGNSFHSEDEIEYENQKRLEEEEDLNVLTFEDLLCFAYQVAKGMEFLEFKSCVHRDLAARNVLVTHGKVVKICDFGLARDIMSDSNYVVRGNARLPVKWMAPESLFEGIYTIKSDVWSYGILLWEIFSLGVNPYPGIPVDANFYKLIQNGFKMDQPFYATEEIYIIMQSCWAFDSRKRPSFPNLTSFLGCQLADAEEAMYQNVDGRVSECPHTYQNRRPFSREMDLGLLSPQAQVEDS
The subject of a further experiment is AMPKalpha. Put plainly: CEREP HTRF kinase selectivity assay. The experiment is classed as biochemical, human. How it is done: The inhibitory activity of selected compounds of the invention was evaluated against a panel of 45 different kinase enzymes by CEREP, France. The assays were performed using standard HTRF assay methods as documented by CEREP against the human orthologues of Ab1 kinase, Akt1/PKBa, AMPKa, BMX kinase (Etk), Brk, CaMK2a, CaMK4, CDC2/CDK1 (cycB), CHK1, CHK2, c-Met kinase, CSK, EphB4 kinase, ERKI, ERK2 (P42mapk), FGFR2 kinase, FGFR4 kinase, FLT-1 kinase (VEGFR1), FLT-3 kinase, Fyn kinase, 1GF1R kinase, IRK (InsR), JNK 2, KDR kinase (VEGFR2), Lck kinase, Lyn kinase, MAPKAPK2, MEK1/MAP2K1, p38a kinase, p38d kinase, p38 g kinase, PDGFRb kinase, PDKI, PKA, PKCa, PKCb1, PKCb2, PKCg, Ret kinase, ROCK2, RSK2, Src kinase, Syk, and TRKA (Table 3). The % Inhibition was determined by the formula; % Inhibition=100×(1−(experimental value−background value)/(high activity control−background value)).
On the technique in general: In TR-FRET formats the signal depends on donor and acceptor labels being close together.

A further experiment concerns the target KDR (VEGFR2) (Homo sapiens, UniProt P35968). Put plainly: CEREP HTRF kinase selectivity assay. The experiment is classed as biochemical.
Experiment [1] concerns HCC1954 basal breast cancer cell line. Put plainly: Cell growth inhibition, Sulforhodamine B assay (SRB). The following applies: Homo sapiens, HCC1954, 120 h, read-out: Cell Line GI50 Range HCC-1954. The class given is cell-based. The procedure, abridged: (§1)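 Growth inhibition is measured by SRB staining after 5 days of culture. Cells are fixed with cold 10% TCA, stained, washed with 1% acetic acid and read at 570 nm. Values are relative to DMSO-treated cells, with GI50 calculated for cytotoxic compounds.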
(Sulforhodamine B stains cellular protein and so reports cell mass.)

Experiment [2] has as its system SW620 colon cancer cell line. Described as above. The class given is cell-based. As to conditions: Homo sapiens, SW-620, 120 h, 5 days culture, SRB. The procedure, abridged:
as §1

The next experiment has as its system HUV-EC-C cells. Put plainly: In Vitro Angiogenesis Assay (tube formation). The following applies: HUV-EC-C cells on ECMatrix, 4 hr; FIGS. 1 and 2.
Experiment [3] relates to human mammary epithelial primary cells (HMEC). Put plainly: Cell growth inhibition, Sulforhodamine B assay (SRB). As to conditions: 120 h, read-out: Cell Line GI50 Range HMEC.
Experiment [4] relates to MCF-7 luminal breast cancer cell line. The description is as above. The experiment is classed as cell-based. As to conditions: Homo sapiens, MCF7, 120 h; MCF-7 luminal breast cancer cell line; 5 days culture; SRB; read-out: Cell Line GI50 Range MCF-7. In a few lines:
as §1

For experiment [5], the system named is A549 lung cancer cell line. The experiment is described as above. The experiment is classed as cell-based. The following applies: Homo sapiens, 120 h; A549 lung cancer cell line; 5 days culture; SRB; read-out: Cell Line GI50 Range A-549. The procedure, abridged:
as §1

Experiment [6] relates to MDA-MB-468 basal breast cancer cell line. The description is as above. The class given is cell-based. The following applies: Homo sapiens, 120 h; MDA-MB-468 basal breast cancer cell line; 5 days culture; SRB; read-out: Cell Line GI50 Range MDA-MB-468. In a few lines:
as §1

Chain of KDR (VEGFR2) (P35968 20-1356): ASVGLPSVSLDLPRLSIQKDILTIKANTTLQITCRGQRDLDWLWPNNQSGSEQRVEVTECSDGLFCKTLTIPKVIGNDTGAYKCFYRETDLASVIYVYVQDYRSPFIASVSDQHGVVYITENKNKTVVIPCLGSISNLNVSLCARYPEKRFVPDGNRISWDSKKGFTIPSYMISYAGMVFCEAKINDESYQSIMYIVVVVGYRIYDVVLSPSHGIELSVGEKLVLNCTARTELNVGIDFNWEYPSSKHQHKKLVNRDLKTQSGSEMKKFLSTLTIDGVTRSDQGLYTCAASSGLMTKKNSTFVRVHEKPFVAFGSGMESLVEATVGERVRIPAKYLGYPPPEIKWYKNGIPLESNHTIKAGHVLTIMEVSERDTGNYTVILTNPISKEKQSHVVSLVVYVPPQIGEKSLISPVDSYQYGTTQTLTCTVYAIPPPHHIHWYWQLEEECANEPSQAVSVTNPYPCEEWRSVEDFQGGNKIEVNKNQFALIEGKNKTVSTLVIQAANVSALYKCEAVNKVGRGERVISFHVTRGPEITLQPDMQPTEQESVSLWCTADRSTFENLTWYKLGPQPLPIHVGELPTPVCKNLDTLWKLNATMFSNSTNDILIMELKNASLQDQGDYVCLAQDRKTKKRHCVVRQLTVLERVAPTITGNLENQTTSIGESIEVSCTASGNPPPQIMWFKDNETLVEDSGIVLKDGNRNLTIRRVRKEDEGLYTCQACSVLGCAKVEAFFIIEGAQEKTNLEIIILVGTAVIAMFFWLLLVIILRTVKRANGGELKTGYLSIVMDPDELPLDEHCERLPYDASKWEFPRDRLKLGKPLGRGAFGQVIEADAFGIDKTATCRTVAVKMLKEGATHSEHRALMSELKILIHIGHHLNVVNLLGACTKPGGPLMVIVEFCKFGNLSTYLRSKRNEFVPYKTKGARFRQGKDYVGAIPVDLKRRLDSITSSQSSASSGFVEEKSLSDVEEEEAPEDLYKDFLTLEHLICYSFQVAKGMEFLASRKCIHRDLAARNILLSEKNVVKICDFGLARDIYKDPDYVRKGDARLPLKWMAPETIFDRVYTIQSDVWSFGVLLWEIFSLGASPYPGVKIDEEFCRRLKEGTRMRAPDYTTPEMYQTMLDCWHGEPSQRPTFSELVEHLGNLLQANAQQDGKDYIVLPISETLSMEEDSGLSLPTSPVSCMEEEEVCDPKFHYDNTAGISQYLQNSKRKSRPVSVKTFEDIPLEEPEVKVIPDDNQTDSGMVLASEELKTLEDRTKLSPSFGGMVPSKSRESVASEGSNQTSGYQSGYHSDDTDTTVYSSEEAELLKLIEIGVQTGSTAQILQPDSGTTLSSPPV
Description for FLT-3: (§2) The inhibitory activity of selected compounds of the invention was evaluated against a panel of 45 different kinase enzymes by CEREP, France. […] The % Inhibition was determined by the formula; % Inhibition=100×(1−(experimental value−background value)/(high activity control−background value)).
Description for KDR (VEGFR2): as §2

For the compound `CN(C)Cc1ccc(/C=C/c2n[nH]c3cc([C@@H]4C[C@]45C(=O)Nc4ccccc45)ccc23)cc1` (racemic) [Example A26, (1R*,2R*)-(E)-2-(3-(4-((dimethylamino)methyl)styryl)-1H-indazol-6-yl)spiro[cyclopropane-1,3′-indolin]-2′-one 2,2,2-trifluoroacetate], the inhibition at 10 µM against FLT-3 is 102%; at KDR (VEGFR2), 58%. Also, the “% Inhibition @ 10 uM” value in the experiment on AMPKalpha is recorded as 69%. Besides, the GI50 in experiment [1] was in the range of 1 to 10 µM; in experiment [2] (read-out: Cell Line GI50 Range SW-620, SW620 colon cancer cell line), 0.1 to 1 µM.
As for `COc1ccc2c(c1)[C@]1(C[C@H]1c1ccc3c(-c4ccc(N5CCN(C)CC5)nc4)n[nH]c3c1)C(=O)N2` (relative stereo) [Example A13, (1R*,2S*)-5′-Methoxy-2-(3-(6-(4-methylpiperazin-1-yl)pyridin-3-yl)-1H-indazol-6-yl)spiro[cycloropane-1,3′-indolin]-2′-one], the “% Inhibition @ 10 uM” value with AMPKalpha was 8%. The “anti-angiogenic effect (tube formation, % of control tube count)” value in the experiment on HUV-EC-C cells is “anti-agiogenic effects at submicromolar concentrations”.
Turning to `COc1ccc2c(c1)[C@@]1(C[C@@H]1c1ccc3c(/C=C/c4ccc(N5CCN(C(C)C)CC5)cc4)n[nH]c3c1)C(=O)N2` (racemic) [Example A189, (1R*,2S*)-(E)-2-(3-(4-(4-isopropylpiperazin-1-yl)styryl)-1H-indazol-6-yl)-5′-methoxyspiro[cyclopropane-1,3′-indolin]-2′-one 2,2,2-trifluoroacetate], the GI50 was 1 to 10 µM in [3]; less than 0.1 µM in experiment [4]; less than 0.1 µM in [5]; less than 0.1 µM in experiment [1] (HCC1954 basal breast cancer cell line, 5 days culture, SRB); less than 0.1 µM in experiment [2] (SW620 colon cancer cell line, read-out: Cell Line GI50 Range SW-620); less than 0.1 µM in experiment [6].
